Assays:
MMP3 = biological target: T1, MMP3 (Homo sapiens, UniProt P08254); experiment: Matrix metalloproteinase enzyme activity assay, MMP3; format: biochemical; settings: thiopeptide chromogenic substrate
T1 construct: purchased BioMol International AK-400
From the text: (§1) Matrix Metalloproteinase Enzyme Activity (MMP3; MMP9) Assay: An in vitro matrix metalloprotease (MMP) inhibition assay. MMPs are extracellular proteases that play a role in many normal and disease states by virtue of their broad substrate specificity. MMP3 substrates include collagens, fibronectins, and laminin; while MMP9 substrates include collagen VII, fibronectins and laminin. Using Colorimetric Drug Discovery kits from BioMol International for MMP3 (AK-400) and MMP-9 (AK-410), this assay is designed to measure protease activity of MMPs using a thiopeptide as a chromogenic substrate (Ac-PLG42-mercapto-4-methyl-pentanoylRG-OC2H5)5,6. The MMP cleavage site peptide bond is replaced by a thioester bond in the thiopeptide. Hydrolysis of this bond by an MMP produces a sulfhydryl group, which reacts with DTNB [5,5′-dithiobis(2-nitrobenzoic acid), Ellman's reagent] to form 2-nitro-5-thiobenzoic acid, which can be detected by its absorbance at 412 nm (c=13,600 M-1 cm-1 at pH 6.0 and above 7). The active ingredients, any one of the combination of ingredients, or compositions having said combinations disclosed in the specification can be assayed.

MMP9 = biological target: T2, MMP9 (Homo sapiens, UniProt P14780); experiment: Matrix metalloproteinase enzyme activity assay, MMP9; format: biochemical; settings: thiopeptide chromogenic substrate
T2 construct: purchased BioMol International AK-410
From the text: as §1

[1] = test system: procollagen peptide production by human epidermal fibroblasts; experiment: Collagen stimulation assay, procollagen peptide ELISA; format: cell-based; settings: treated for 3 days
From the text: Collagen Stimulation Assay:
Collagen is an extracellular matrix protein critical for skin structure. Increased synthesis of collagen helps improve skin firmness and elasticity. This bioassay can be used to examine the effect of any one of the active ingredients, combination of ingredients, or compositions having said combinations disclosed in the specification on the production of procollagen peptide (a precursor to collagen) by human epidermal fibroblasts. The endpoint of this assay is a spectrophotometric measurement that reflects the presence of procollagen peptide and cellular viability. The assay employs the quantitative sandwich enzyme immunoassay technique whereby a monoclonal antibody specific for procollagen peptide was been pre-coated onto a microplate. […] Following a wash to remove any unbound antibody-enzyme reagent, a substrate solution was added to the wells and color develops in proportion to the amount of procollagen peptide bound in the initial step using a microplate reader for detection at 450 nm. The color development was stopped and the intensity of the color was measured. […] Following incubation, cell culture medium was collected and the amount of procollagen peptide secretion quantified using a sandwich enzyme linked immuno-sorbant assay (ELISA) from Takara (#MK101).

T1 sequence (P08254 100-272 limits assumed): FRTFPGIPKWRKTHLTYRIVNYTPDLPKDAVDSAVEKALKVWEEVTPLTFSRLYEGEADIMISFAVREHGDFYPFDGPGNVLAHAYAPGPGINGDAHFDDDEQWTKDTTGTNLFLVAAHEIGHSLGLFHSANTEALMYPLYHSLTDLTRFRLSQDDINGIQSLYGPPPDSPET
T2 sequence (P14780 107-444 limits assumed): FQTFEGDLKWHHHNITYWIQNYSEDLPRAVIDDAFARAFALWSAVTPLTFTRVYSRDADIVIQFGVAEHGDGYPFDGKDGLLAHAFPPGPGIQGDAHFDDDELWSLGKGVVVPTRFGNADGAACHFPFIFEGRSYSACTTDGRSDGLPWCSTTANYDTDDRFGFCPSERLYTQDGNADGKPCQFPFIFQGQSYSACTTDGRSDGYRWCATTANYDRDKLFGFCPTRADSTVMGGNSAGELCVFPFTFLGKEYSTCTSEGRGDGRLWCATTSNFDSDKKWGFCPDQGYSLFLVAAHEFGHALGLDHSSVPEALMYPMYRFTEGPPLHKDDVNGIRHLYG

Compound | % MMP3 Activity (MMP3) [%] | % MMP9 Activity (MMP9) [%] | % Increase of Type I Collagen Production [1] [%]
CCCCCCCCC(CCCCCC)C(=O)OC[C@H](OC(=O)C(CCCCCC)CCCCCCCC)[C@H]1OC(=O)C(OC(=O)C(CCCCCC)CCCCCCCC)=C1OC(=O)C(CCCCCC)CCCCCCCC (stereo partly shown) [Tetrahexyldecyl ascorbate] | 38 | 11 | 50
Trifluoroacetyl tripeptide-2 |  |  | 23

From patent US10881699B2, “Cosmetic compositions” (Mary Kay Inc., priority 2014, dated 2021)
